Data on twelve compounds can be found in ChEMBL document CHEMBL1201862, “PubChem BioAssay data set” (2004).

Molecules are shown by their SMILES.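 In this assay, cells in 96-well plates receive the compound at five concentrations for 48 hours. Endpoints are linearly interpolated between the surrounding concentrations. At the GI50, growth is halved.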 The source made the active and inactive calls. Rule as the data show it: active = GI50 up to about 1.1 µM and inactive = higher. Some results are limits rather than exact numbers.

Among the test systems are A549; TK-10; SN12C; UACC-62; SW-620; Malme-3M; OVCAR-5; SR; CCRF-CEM; HCT-116; HOP-92; SF-539; U-251; IGROV-1; EKVX; HOP-62; OVCAR-3; MDA-MB-231; MDA-MB-435.
What all share (experiment): DTP human tumour cell line panel, 48 h

On to `CC(C)(CN1CCCCC1)C(=O)/C=C/c1ccc(Cl)cc1`, for which the GI50 was 3.42 µM (inactive) in the assay on A549; 15.3 µM (inactive) in the assay on TK-10; 2.61 µM (inactive) in the assay with SN12C; 5.35 µM (inactive) with UACC-62; 2.57 µM (inactive) with SW-620; 5.06 µM (inactive) in the assay on Malme-3M. In addition, the GI50 in the assay on OVCAR-5 was 11.4 µM (inactive); with SR, 2.58 µM (inactive); in the assay with CCRF-CEM, 2.09 µM (inactive); in the assay on HCT-116 it was 3.4 µM (inactive); in the assay with HOP-92, 1.6 µM (inactive); with SF-539, 2.23 µM (inactive). The GI50 with U-251 was 3.51 µM (inactive); in the assay on IGROV-1, > 10 µM (inactive); with EKVX, 3.3 µM (inactive); with HOP-62, > 10 µM (inactive); in the assay on OVCAR-3 it was 2.77 µM (inactive).
`Cc1ccc(NC(=O)/C(=N/NC(=O)CC#N)C2C(=O)N(c3ccccc3)N=C2N)cc1C` (configuration not stated): the GI50 in the assay with A549, with TK-10, with SN12C, in the assay on UACC-62, in the assay on SW-620 and in the assay on Malme-3M was > 100 µM (inactive) each time. For the same compound, the GI50 in the assay with OVCAR-5, in the assay on SR, with CCRF-CEM, in the assay on HCT-116, with HOP-92 and in the assay with SF-539 was > 100 µM (inactive) in each case. The GI50 in the assay on U-251, in the assay on IGROV-1, in the assay with EKVX, in the assay on HOP-62 and in the assay with OVCAR-3 was > 100 µM (inactive) throughout.
As to `COc1ccc2c(c1)/C(=C\c1c(C)nc3n1CCS3)C(=O)N2`, the GI50 in the assay on A549 is 24.1 µM (inactive); with TK-10, 35.8 µM (inactive); in the assay on MDA-MB-231, 30.5 µM (inactive); in the assay on SN12C, 26.5 µM (inactive); with UACC-62, 22.7 µM (inactive); with SW-620 it was 9.79 µM (inactive). The GI50 in the assay on OVCAR-5 was 42.3 µM (inactive); in the assay with SR it was 9.14 µM (inactive); in the assay on CCRF-CEM it was 24.7 µM (inactive); in the assay with MDA-MB-435 it was 3.12 µM (inactive); in the assay on HCT-116, 19.2 µM (inactive); in the assay on HOP-92 it was 34.4 µM (inactive). Moreover, the GI50 with SF-539 is 18.3 µM (inactive); with U-251 it was 22.1 µM (inactive); with IGROV-1, 16.7 µM (inactive); in the assay with EKVX it was 34.5 µM (inactive); with HOP-62, 32.3 µM (inactive); in the assay on OVCAR-3, 21.7 µM (inactive).
Take `CN(C)c1ccc(/C=C2\C[C@H]3[C@@H]4CCc5cc(OCCN6CCCC6)ccc5[C@H]4CC[C@]3(C)C2=O)cc1`: the GI50 was 1.5 µM (inactive) with A549; 1.64 µM (inactive) in the assay with TK-10; 1.53 µM (inactive) with MDA-MB-231; 1.62 µM (inactive) in the assay with SN12C; 1.9 µM (inactive) with UACC-62; 2.03 µM (inactive) in the assay with OVCAR-5. The GI50 with SR was 0.333 µM (active); with CCRF-CEM, 1.13 µM (inactive); in the assay on MDA-MB-435, 1.55 µM (inactive); with HCT-116, 1.21 µM (inactive); with SF-539 it was 1.59 µM (inactive); with IGROV-1, 1.13 µM (inactive). In addition, in the assay with EKVX, the GI50 was 2.2 µM (inactive).
Consider `CC(C)C1(O)C(c2ccccc2)=C(c2ccccc2)C(c2ccccc2)=C1c1ccccc1`, for which the GI50 with A549 is 6.76 µM (inactive); in the assay on TK-10, 5.74 µM (inactive); with SN12C it was 5.31 µM (inactive); in the assay with UACC-62, 7.59 µM (inactive); with SW-620, 6.12 µM (inactive); in the assay with Malme-3M, 10.4 µM (inactive). Moreover, the GI50 was 17.5 µM (inactive) in the assay with OVCAR-5; 2.96 µM (inactive) in the assay with SR; 5.09 µM (inactive) in the assay with CCRF-CEM; 3.61 µM (inactive) in the assay with HCT-116; 4.38 µM (inactive) in the assay with HOP-92; 12.5 µM (inactive) with SF-539. The GI50 in the assay on U-251 was 5.11 µM (inactive); in the assay with IGROV-1 it was 6.15 µM (inactive); with EKVX, 5.28 µM (inactive); in the assay with HOP-62, 12.1 µM (inactive); with OVCAR-3 it was 4.71 µM (inactive).
As to `CCCCCCCCCCCCCCCCCC(=O)OCC(C[As](=O)(O)O)OC(=O)CCCCCCCCCCCCCCCCC` (configuration not stated), the GI50 with A549 was > 100 µM (inactive); in the assay with TK-10, 33.4 µM (inactive); in the assay on SN12C it was 50.1 µM (inactive); in the assay on UACC-62 it was > 100 µM (inactive); with SW-620, 16 µM (inactive); in the assay on Malme-3M, 30.1 µM (inactive). In addition, the GI50 with OVCAR-5 is > 100 µM (inactive); in the assay with SR, 18.4 µM (inactive); with CCRF-CEM, 39 µM (inactive); with HCT-116 it was 60.1 µM (inactive); in the assay with HOP-92, 11.4 µM (inactive); with SF-539 it was 32.6 µM (inactive). Also, the GI50 was 26 µM (inactive) in the assay on U-251; 52.5 µM (inactive) with IGROV-1; > 100 µM (inactive) with EKVX; 24.4 µM (inactive) with HOP-62; 60.4 µM (inactive) in the assay on OVCAR-3.
Consider `CCCCN(CC)C(=O)C1=C(C)NC(C)=C(C(=O)N(CC)CCCC)C1`, for which the GI50 was > 100 µM (inactive) with A549; > 100 µM (inactive) in the assay with TK-10; > 100 µM (inactive) in the assay with MDA-MB-231; > 100 µM (inactive) in the assay on SN12C; 57.7 µM (inactive) in the assay on UACC-62; > 100 µM (inactive) in the assay on SW-620. Further, the GI50 in the assay on OVCAR-5 was > 100 µM (inactive); with MDA-MB-435, 80 µM (inactive); in the assay with HCT-116 it was > 100 µM (inactive); in the assay on HOP-92 it was > 100 µM (inactive); in the assay on SF-539 it was > 100 µM (inactive); in the assay with U-251 it was > 100 µM (inactive). The GI50 in the assay with IGROV-1 was 97.7 µM (inactive); in the assay on EKVX, > 100 µM (inactive); in the assay on HOP-62 it was > 100 µM (inactive); in the assay with OVCAR-3 it was > 100 µM (inactive).
In the case of `CC12C3CC4C5CC(C(C53)[C@@H]1NCc1ccccc1)C42` (some centres not stated), the GI50 in the assay with A549, with TK-10, in the assay on SN12C, in the assay with UACC-62, with SW-620 and in the assay with Malme-3M was > 100 µM (inactive) in each case. In addition, the GI50 in the assay on OVCAR-5 was 86.9 µM (inactive); in the assay with SR, > 100 µM (inactive); in the assay with CCRF-CEM, > 100 µM (inactive); with HCT-116, > 100 µM (inactive); in the assay with HOP-92, 55.7 µM (inactive); with SF-539, > 100 µM (inactive). In addition, the GI50 with U-251 is 97.5 µM (inactive); in the assay on IGROV-1 it was > 100 µM (inactive); in the assay on EKVX, > 100 µM (inactive); with HOP-62, > 100 µM (inactive); in the assay on OVCAR-3 it was 54.3 µM (inactive).
On to `O=C(c1ccc(Br)cc1)n1c2ccc(Br)cc2c2nc3ccccc3nc21`, for which the GI50 in the assay with TK-10, in the assay on SN12C, in the assay with UACC-62, in the assay on SW-620, in the assay with Malme-3M and with OVCAR-5 was > 100 µM (inactive) each time. The GI50 was 83.2 µM (inactive) in the assay on SR; > 100 µM (inactive) with CCRF-CEM; > 100 µM (inactive) in the assay on MDA-MB-435; > 100 µM (inactive) in the assay on HCT-116; > 100 µM (inactive) in the assay on HOP-92; > 100 µM (inactive) in the assay with SF-539. The GI50 with U-251, in the assay on IGROV-1, with EKVX, in the assay on HOP-62 and with OVCAR-3 was > 100 µM (inactive) each time.
As for `CN(C)CCC1(C2=CCCC2)CC/C(=C\c2ccc(Cl)cc2)C1=O` (configuration not stated), the GI50 with A549 is 12.4 µM (inactive); in the assay with TK-10 it was 11.1 µM (inactive); in the assay on SN12C, 11.9 µM (inactive); in the assay with UACC-62, 3.08 µM (inactive); with SW-620 it was 9.4 µM (inactive); with Malme-3M, 6.56 µM (inactive). Further, the GI50 with OVCAR-5 is 12.9 µM (inactive); in the assay on SR, 4.51 µM (inactive); in the assay with CCRF-CEM, 2.38 µM (inactive); in the assay with HCT-116 it was 8.77 µM (inactive); with HOP-92, 3.89 µM (inactive); in the assay on SF-539, 12.7 µM (inactive). Moreover, the GI50 in the assay on U-251 is 8.87 µM (inactive); with IGROV-1 it was 7.14 µM (inactive); in the assay with EKVX it was 7.16 µM (inactive); in the assay on HOP-62 it was 16.9 µM (inactive); in the assay on OVCAR-3, 13.7 µM (inactive).
Take `O=C(CC(O)(c1ccccc1)c1ccc(Cl)cc1)NC(=O)c1ccccc1O` (configuration not stated): the GI50 in the assay with A549 is 8.07 µM (inactive); in the assay on TK-10, 13.2 µM (inactive); in the assay with SN12C, 3.76 µM (inactive); with UACC-62, 6.04 µM (inactive); with SW-620 it was 18.7 µM (inactive); with Malme-3M, 14.9 µM (inactive). For the same compound, the GI50 with OVCAR-5 was 1.99 µM (inactive); with SR, 11.6 µM (inactive); in the assay on CCRF-CEM, 4.41 µM (inactive); in the assay on HCT-116, 11.7 µM (inactive); in the assay on HOP-92 it was 2.13 µM (inactive); in the assay with SF-539, 11.6 µM (inactive). For the same compound, the GI50 in the assay on U-251 was 3.38 µM (inactive); in the assay on IGROV-1 it was 5.75 µM (inactive); in the assay on EKVX it was 20.7 µM (inactive); in the assay on HOP-62, 6.52 µM (inactive); with OVCAR-3, 4.36 µM (inactive).
Take `CN(C)c1n/c(=N/Cc2cccnc2)ss1`: the GI50 in the assay with A549, in the assay with TK-10, with MDA-MB-231, with SN12C, in the assay with UACC-62 and in the assay on SW-620 was > 10 µM (inactive) in each case. The GI50 in the assay on Malme-3M was > 10 µM (inactive); with SR it was 2.09 µM (inactive); with CCRF-CEM, 0.597 µM (active); in the assay with MDA-MB-435 it was > 10 µM (inactive); in the assay with HOP-92 it was > 10 µM (inactive); in the assay on IGROV-1 it was > 10 µM (inactive). The GI50 with EKVX and in the assay with HOP-62 was > 10 µM (inactive) throughout.

For orientation: GI50 means the concentration that inhibits growth by half.
